Several values for one entry are separate records, joined by “and”; a condition that tells them apart may be missing. Equal entries are not always repeated.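 Each compound was tested at five concentrations against cells in 96-well plates for 48 hours. Abbreviation: GI50, concentration required for 50% inhibition of growth. Definition used: TGI = concentration required for complete inhibition of growth.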
How the values were obtained:
Experiment in all cases: growth of human tumour cells (NCI), 48 h
SF-539 CNS = system: SF-539 CNS
SK-MEL-2 melanoma = system: SK-MEL-2 melanoma
HCT-116 colon = system: HCT-116 colon
KM12 colon = system: KM12 colon
NCI-H23 lung = system: NCI-H23 lung
SN12C renal = system: SN12C renal
SK-OV-3 ovarian = system: SK-OV-3 ovarian
ACHN renal = system: ACHN renal
SF-295 CNS = system: SF-295 CNS

SMILES | GI50 (SF-539 CNS) [µM] | TGI (SF-539 CNS) | GI50 (SK-MEL-2 melanoma) | TGI (SK-MEL-2 melanoma) | GI50 (HCT-116 colon) | TGI (HCT-116 colon) | GI50 (KM12 colon) [µM] | TGI (KM12 colon) | GI50 (NCI-H23 lung) | TGI (NCI-H23 lung) | GI50 (SN12C renal) | TGI (SN12C renal) | GI50 (SK-OV-3 ovarian) | TGI (SK-OV-3 ovarian) | GI50 (ACHN renal) | TGI (ACHN renal) | GI50 (SF-295 CNS) | TGI (SF-295 CNS)
COc1cc(-c2cc(/C=C/C(=O)c3ccc(F)c(F)c3)[nH]n2)cc(OC)c1OC | 3.76 | 17.7 µM | 2.3 µM | 5.89 µM | 4 µM | 13.9 µM | 3.06 | 11.4 µM | 2.6 µM | 8.5 µM | 3.37 µM | 25.5 µM | 3.53 µM | 58.6 µM | 3.26 µM | > 100 µM |  | 
COc1cc(C2c3cc4c(cc3[C@@H](NCCN(C)C)C3COC(=O)[C@H]23)OCO4)cc(OC)c1O (some centres not stated) |  | 0.207 µM and 0.974 µM | 0.397 µM and 1.22 µM | 1.45 µM and 3.19 µM | 0.272 µM and 0.715 µM | 2.18 µM and 3.79 µM |  | 2.22 µM and 2.63 µM | 0.103 µM and 0.228 µM | 0.673 µM and 1.41 µM | 0.0256 µM and 0.084 µM | 0.406 µM and 0.982 µM | 0.0393 µM and 0.103 µM | 0.565 µM and 0.649 µM | < 0.01 µM and 0.0269 µM | 0.045 µM and 0.192 µM | 0.0652 µM and 0.15 µM | 1.05 µM and 1.66 µM
CCOc1ccccc1N=Nc1ccc2oc(=O)c(C(C)=O)cc2c1 |  | > 100 µM |  | > 100 µM |  | > 100 µM |  | > 100 µM |  | > 100 µM |  | > 100 µM |  | > 100 µM |  |  |  | > 100 µM
Cc1ccc(C(=O)CC2(O)C(=O)Nc3c(C)cc(Cl)cc32)cc1 (configuration not stated) |  |  |  | > 100 µM |  |  |  | > 100 µM |  | > 100 µM |  | > 100 µM |  | > 100 µM |  | > 100 µM |  | > 100 µM
O=[N+]([O-])c1ccc(C2=Nc3ccccc3S(=O)C(c3ccccc3)C2)cc1 (configuration not stated) |  | 45 µM |  | > 100 µM |  |  |  | 41.3 µM |  | 36.3 µM |  | 53.7 µM |  | 73.6 µM |  | 44.2 µM |  | > 100 µM
Nc1ccc2n[se]nc2c1 |  | > 100 µM |  | > 100 µM |  | > 100 µM |  | > 100 µM |  | > 100 µM |  | > 100 µM |  | > 100 µM |  | > 100 µM |  | > 100 µM
CN(C)CCNC(=O)c1cccc2c1nc(-c1ccc(F)cc1)c1ccccc12 |  | 13.8 µM |  | 22.3 µM |  | 13.4 µM |  | 19.3 µM |  | 18.6 µM |  | 16 µM |  | 21.1 µM |  | 11.4 µM |  | 19.3 µM
O=C1c2ccccc2C(=O)c2cc3c(cc21)CS(=O)C3 |  | > 100 µM |  | > 100 µM |  |  |  | > 100 µM |  | > 100 µM |  | 43.3 µM |  | > 100 µM |  | > 100 µM |  | > 100 µM
N#CCCn1[nH]c(=O)c(Cl)c(Cl)c1=O |  | 51.1 µM |  | 29.6 µM |  | 29.1 µM |  | 32.1 µM |  | 29.3 µM |  | 32.5 µM |  |  |  | 30.7 µM |  | 32.1 µM
CC(C)(C)c1cc(CCC(=O)Nc2ccc(Cl)cc2)[nH]c(=S)n1 |  | > 100 µM |  | > 100 µM |  |  |  | > 100 µM |  | > 100 µM |  | > 100 µM |  | > 100 µM |  | > 100 µM |  | > 100 µM
O=S1(=O)N2CN3CN(C2)CN1C3 |  |  |  | 473 µM | 26.6 µM | 44.4 µM and 76.6 µM |  | 306 µM |  | 44.3 µM |  | 158 µM |  | 868 µM |  | 283 µM |  | 63.3 µM
CC(=O)C1CCN(c2ccccc2)C1 (configuration not stated) |  | > 100 µM |  | > 100 µM |  | > 100 µM |  | > 100 µM |  | > 100 µM |  | > 100 µM |  | > 100 µM |  | > 100 µM |  | > 100 µM
CCOC(=O)C(C)(NC(=O)c1ccc(NCc2ccc3nc(NC(=O)c4ccccc4)nc(NC(=O)c4ccccc4)c3c2)cc1)C(=O)OCC |  | 9.88 µM |  | 34.7 µM |  | 24 µM |  |  |  | 27.5 µM |  | 29.8 µM |  | 27.4 µM |  | 23.6 µM |  | 19.9 µM
O=C1C(c2ccccc2)=C(c2ccccc2)C(c2ccc(Cc3ccc(C4=C(c5ccccc5)C(=O)C(c5ccccc5)=C4c4ccccc4)cc3)cc2)=C1c1ccccc1 |  | > 100 µM |  | > 100 µM |  | > 100 µM |  | > 100 µM |  | > 100 µM |  |  |  | > 100 µM |  |  |  | > 100 µM
COc1ccccc1NC(=O)C1=C(C)NC(C)=C(C(=O)Nc2ccccc2OC)C1c1ccccc1[N+](=O)[O-] |  | 37 µM |  | 26 µM |  | > 100 µM |  | 35 µM |  | 43.6 µM |  | 37.4 µM |  | 68 µM |  | 37.5 µM |  | > 100 µM
NC1NC=NC2C1N=CN2C1OC(CO)C2[O][Sn][O]C21 (configuration not stated) | > 100 | > 100 µM | > 100 µM | > 100 µM | > 100 µM | > 100 µM | > 100 | > 100 µM | > 100 µM | > 100 µM | 1.98 µM | > 100 µM | > 100 µM | > 100 µM | > 100 µM | > 100 µM | > 100 µM | > 100 µM

SMILES | GI50 (SF-539 CNS) [µM] | TGI (SF-539 CNS) | GI50 (SK-MEL-2 melanoma) | TGI (SK-MEL-2 melanoma) | GI50 (HCT-116 colon) | TGI (HCT-116 colon) | GI50 (KM12 colon) [µM] | TGI (KM12 colon) | GI50 (NCI-H23 lung) | TGI (NCI-H23 lung) | GI50 (SN12C renal) | TGI (SN12C renal) | GI50 (SK-OV-3 ovarian) | TGI (SK-OV-3 ovarian) | GI50 (ACHN renal) | TGI (ACHN renal) | GI50 (SF-295 CNS) | TGI (SF-295 CNS)
Nc1nncc2c1c(Br)cn2C1OC(CO)C(O)C1O (configuration not stated) |  | > 100 µM |  | > 60.9 µM |  | > 100 µM |  | > 100 µM |  | > 67.6 µM |  | > 100 µM |  | > 100 µM |  | > 100 µM |  | > 100 µM
CC(C)(CN1C(=O)C(Cl)=C(Cl)C1=O)CN1C(=O)C(Cl)=C(Cl)C1=O |  | 38.8 µM |  | 41 µM |  | 27.9 µM |  | 57.4 µM |  | 21 µM |  | 29.4 µM |  | > 58.9 µM |  | 21.7 µM |  | 58.8 µM
O=C(c1ccc(O)cc1O)C1C(c2ccc(O)cc2)OC(c2ccc(O)cc2)C1C(=O)c1ccc(O)cc1O (configuration not stated) |  | 47.1 µM |  | 40.3 µM |  |  |  | > 100 µM |  | 74.2 µM |  |  |  |  |  | 63.1 µM |  | 67.9 µM
Cn1c(CBr)nc2c1C(=O)c1nc(CBr)[nH]c(=O)c1C2=O |  | > 100 µM |  |  |  | > 100 µM |  |  |  | > 100 µM |  | > 100 µM |  | > 100 µM |  | > 100 µM |  | > 100 µM
COC1C2C[C@@H](O)CCC2C(C(=O)OCCl)C[C@H]1O (some centres not stated) |  | > 100 µM |  | > 100 µM |  | > 100 µM |  | > 100 µM |  |  |  | > 100 µM |  | > 100 µM |  | > 100 µM |  | 
Cc1ccc(NC(=O)CCCC(=O)CC(=O)c2ccc(Br)cc2)cc1 |  | > 100 µM |  | > 100 µM |  | > 100 µM |  | > 100 µM |  | > 100 µM |  | > 100 µM |  | > 100 µM |  | > 100 µM |  | > 100 µM
Cc1nc(N)nc(N)c1CCCCc1ccc(N)cc1 |  | 21.7 µM |  | 21.3 µM |  | 13.4 µM |  | 21.7 µM |  | 15.8 µM |  | 16.9 µM |  | 16.6 µM |  | 59.2 µM |  | 14.2 µM
NC(=O)c1ccc2c(c1)-c1nc-2nc2[n-]c(nc3nc(nc4[n-]c(n1)c1ccc(C(N)=O)cc41)-c1ccc(C(N)=O)cc1-3)c1ccc(C(N)=O)cc21.[Co+2] | 12.7 | 33.5 µM | > 50 µM | > 50 µM | > 50 µM | > 50 µM | > 50 | > 50 µM | > 50 µM | > 50 µM | > 50 µM | > 50 µM | > 50 µM | > 50 µM | > 50 µM | > 50 µM | > 50 µM | > 50 µM
Cc1ccc(NC(=O)CCc2nc(=S)[nH][nH]2)cc1 |  | > 100 µM |  | > 100 µM |  | > 100 µM |  | > 100 µM |  | > 100 µM |  | > 100 µM |  | > 100 µM |  | > 100 µM |  | > 100 µM
NC(N)=N/N=C/c1c(-c2ccsc2)nc2n1CCS2 | 14.4 | 30.3 µM | 51.9 µM | > 100 µM | 14.3 µM | 27.3 µM | 17.1 | 43.1 µM | 23.8 µM | 80 µM | 15.5 µM | 54.9 µM | 35.4 µM | > 100 µM | 18.5 µM | 46 µM | > 100 µM | > 100 µM
CC(C)N(C(=O)C12C3C4C1C1C2C3C41C#N)C(C)C (configuration not stated) |  | > 100 µM |  | > 100 µM |  | > 100 µM |  | > 100 µM |  | > 100 µM |  | > 100 µM |  | > 100 µM |  | > 100 µM |  | > 100 µM
COc1cc[c]([Sn]([c]2ccc(OC)cc2)([c]2ccc(OC)cc2)[c]2ccc(OC)cc2)cc1 | 16.8 | 48.6 µM | 28.2 µM | > 100 µM | 8.92 µM |  |  |  | 23.3 µM | > 100 µM | > 100 µM | > 100 µM | 96.5 µM | > 100 µM | 17.4 µM | 96.7 µM | 39.4 µM | > 100 µM
CN=c1ss/c(=N\C(=S)N(C)C)n1C |  | > 100 µM |  | > 100 µM |  | > 100 µM |  | > 100 µM |  | > 100 µM |  | > 100 µM |  | > 100 µM |  | > 100 µM |  | > 100 µM
CCCNC(=O)Nc1c([N+](=O)[O-])cc(C(F)(F)F)cc1[N+](=O)[O-] |  | > 100 µM |  | > 100 µM |  | > 100 µM |  | > 100 µM |  | > 100 µM |  |  |  | > 100 µM |  | > 100 µM |  | > 100 µM
Nc1nnc2c(-c3ccccc3)[nH]nc2n1 |  | > 100 µM |  | > 100 µM |  | > 100 µM |  | > 100 µM |  | > 100 µM |  | > 100 µM |  |  |  | > 100 µM |  | > 100 µM

Reference: PubChem BioAssay (NCI)
